The results in this text go back to ChEMBL document CHEMBL5550133, “Update on the development of TGR5 agonists for human diseases” (Eur J Med Chem, 2024).

Converted amounts (≈) assume the structure as drawn.

Data set [1] has as its target T1, G-protein coupled bile acid receptor 1 (Homo sapiens, UniProt Q8TDU6).
T1 sequence (Q8TDU6 whole entry): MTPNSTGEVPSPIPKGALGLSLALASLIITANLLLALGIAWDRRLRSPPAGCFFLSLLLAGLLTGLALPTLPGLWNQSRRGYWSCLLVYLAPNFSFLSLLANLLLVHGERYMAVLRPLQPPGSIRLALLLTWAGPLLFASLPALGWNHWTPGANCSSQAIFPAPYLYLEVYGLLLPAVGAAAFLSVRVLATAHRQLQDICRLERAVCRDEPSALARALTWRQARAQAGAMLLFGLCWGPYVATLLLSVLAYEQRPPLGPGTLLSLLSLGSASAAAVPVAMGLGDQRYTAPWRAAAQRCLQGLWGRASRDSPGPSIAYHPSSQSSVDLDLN
Put plainly: Agonist activity at TGR5 (unknown origin) in CHO-K1 cells. It is filed as functional, cell-based.

The nature of data set [2]: Clearance in human liver microsomes. The following applies: read-out: CLH. It is filed as ADME, Microsome. For orientation: Microsomes from liver hold many membrane-bound enzymes, among them those of drug oxidation.
Data set [3] concerns the target T1, G-protein coupled bile acid receptor 1. Put plainly: Agonist activity at TGR5 (unknown origin) expressed in HEK293 cells. It is filed as functional, cell-based.
Data set [4] concerns the target Cytochrome P450 3A4 (Homo sapiens, UniProt P08684). Put plainly: Inhibition of CYP3A4 (unknown origin). It counts as ADME.
In data set [5] the target is Cytochrome P450 2C9 (Homo sapiens, UniProt P11712). Description: Inhibition of CYP2C9 (unknown origin). It is filed as ADME.
Chain of Cytochrome P450 2C9 (P11712 whole entry): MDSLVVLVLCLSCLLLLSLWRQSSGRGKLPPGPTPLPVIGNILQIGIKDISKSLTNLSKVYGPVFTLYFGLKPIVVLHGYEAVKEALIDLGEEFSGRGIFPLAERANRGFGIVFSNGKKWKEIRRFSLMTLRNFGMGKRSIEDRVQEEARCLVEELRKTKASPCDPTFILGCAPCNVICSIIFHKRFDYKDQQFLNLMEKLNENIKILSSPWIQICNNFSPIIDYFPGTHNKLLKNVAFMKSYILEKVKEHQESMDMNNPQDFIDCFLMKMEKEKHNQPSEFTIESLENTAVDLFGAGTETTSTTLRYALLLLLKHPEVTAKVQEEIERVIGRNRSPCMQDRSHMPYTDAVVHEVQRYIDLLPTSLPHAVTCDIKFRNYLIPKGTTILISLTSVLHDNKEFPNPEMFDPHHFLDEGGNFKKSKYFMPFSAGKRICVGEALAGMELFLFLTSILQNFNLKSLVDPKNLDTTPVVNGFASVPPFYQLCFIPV
Data set [6] is described as follows: Aqueous solubility of compound. It counts as physicochemical. The following applies: aqueous (not further specified).
Data set [7] addresses T2, G-protein coupled bile acid receptor 1 (Mus musculus, UniProt Q80SS6).
T2 sequence (Q80SS6 whole entry): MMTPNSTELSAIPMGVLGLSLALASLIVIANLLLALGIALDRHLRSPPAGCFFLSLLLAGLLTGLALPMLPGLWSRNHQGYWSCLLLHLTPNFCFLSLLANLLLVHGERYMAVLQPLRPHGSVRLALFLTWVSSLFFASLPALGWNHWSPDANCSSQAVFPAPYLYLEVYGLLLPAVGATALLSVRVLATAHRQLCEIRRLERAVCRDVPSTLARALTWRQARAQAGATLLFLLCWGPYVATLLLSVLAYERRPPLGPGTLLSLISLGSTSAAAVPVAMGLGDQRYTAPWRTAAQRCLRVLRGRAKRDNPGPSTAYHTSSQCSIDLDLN
Description: Agonist activity at mouse TGR5 receptor expressed in HEK293 cells assessed as activation of intracellular cAMP production incubated for 2 hrs by luciferase reporter gene assay. It is filed as functional, cell-based. (Changes in cAMP serve as a functional read-out for many G protein-coupled receptors.)

For data set [8], the target named is T1, G-protein coupled bile acid receptor 1. Description: Agonist activity at human TGR5. It counts as functional.
Data set [9] has as its target T2, G-protein coupled bile acid receptor 1. Description: Agonist activity at mouse TGR5 receptor. It is filed as functional.
Data set [10] has as its target T1, G-protein coupled bile acid receptor 1. Put plainly: Agonist activity at TGR5 in HEK293 cells. It counts as functional, cell-based.
A short description of data set [11]: Oral bioavailability in mouse at 2 mg/kg. The following applies: in vivo. It counts as ADME, organism-based.
Data set [12] deals with T3, G-protein coupled bile acid receptor 1 (Homo sapiens) (UniProt Q8TDU6).
T3 sequence (whole entry): T1 sequence (Q8TDU6 whole entry)
Description: Agonist activity at TGR5 in human NCI-H716 cells assessed as increase in GLP-1 secretion at 5 uM measured for 60 mins by SEAP reporter gene based assay relative to control. The conditions noted are these: filed as agonist. It counts as functional, cell-based. (In general: A reporter such as luciferase makes a cellular process visible.)

The target in data set [13] is T1, G-protein coupled bile acid receptor 1. Description: Agonist activity at TGR5 (unknown origin). It is filed as functional.
Data set [14] shares this target. Put plainly: Agonist activity at TGR5 receptor in human NCI-H716 cells assessed as activation of intracellular cAMP production incubated for 1 hr by TR-FRET assay. It is filed as functional, cell-based.
For data set [15], the target named is CYP450 (isoform not specified) (Homo sapiens, UniProt P04798+P05177+P05181+P08684+P10632+P10635+P11509+P11712+P13584+P20813+P20815+P20853+P24462+P24903+P33260+P33261+P51589+P78329+P98187+Q02928+Q08477+Q16678+Q16696+Q5TCH4+Q6VVX0+Q7Z449+Q8TAV3+Q96SQ9+Q9HB55). Put plainly: Inhibition of CYP450 (unknown origin). It counts as ADME, protein assay.

Chain of Cytochrome P450 3A4 (P08684 whole entry): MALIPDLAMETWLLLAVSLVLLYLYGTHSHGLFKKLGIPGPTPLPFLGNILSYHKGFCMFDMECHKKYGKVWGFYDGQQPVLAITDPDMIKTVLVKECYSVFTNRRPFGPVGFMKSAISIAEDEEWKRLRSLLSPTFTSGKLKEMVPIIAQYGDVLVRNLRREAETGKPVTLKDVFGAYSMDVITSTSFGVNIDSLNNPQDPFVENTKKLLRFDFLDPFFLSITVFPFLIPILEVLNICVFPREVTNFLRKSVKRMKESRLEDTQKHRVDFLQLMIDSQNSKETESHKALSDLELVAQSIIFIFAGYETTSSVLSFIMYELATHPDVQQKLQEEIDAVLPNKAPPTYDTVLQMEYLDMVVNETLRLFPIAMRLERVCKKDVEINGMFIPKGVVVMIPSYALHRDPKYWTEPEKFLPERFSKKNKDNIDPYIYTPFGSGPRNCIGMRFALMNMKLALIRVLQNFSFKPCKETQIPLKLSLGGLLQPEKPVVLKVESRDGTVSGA

A word on the EC50: it is the concentration at which the effect is half-maximal. With `C[C@H]1[C@H](C)CC[C@]2(C(=O)O)CC[C@]3(C)C(=CC[C@@H]4[C@@]5(C)C[C@@H](O)[C@H](O)C(C)(C)[C@@H]5CC[C@]43C)[C@H]12` [COROSOLIC ACID], the midpoint of the response in data set [1], the EC50, lay at 500 nM. Usually IC50 stands for the midpoint of a concentration-inhibition curve. Low values mean greater potency, high ones weaker potency. On to `O=C(Nc1nnn[nH]1)c1cc(Cl)c(Oc2ncccc2C(=O)N2CCN(C3CC3)c3ccccc32)cc1Cl`, for which the CLint scaled in data set [2] is 56 mL/min/kg. The same compound yielded an EC50 in data set [3] of 70 nM. Also, the IC50 in data set [4] and in data set [5] was over 10000 nM throughout. As a reminder, the solubility is the dissolved amount per volume that the medium holds. High values mean a readily soluble substance, low ones a poorly soluble substance. Take `O=C(c1cccnc1Oc1cccc(C(F)(F)F)c1)N1CCCc2ccccc21`: the figures for the IC50 in data set [4] and in data set [5] were 5900 nM and 2200 nM, respectively. This compound also displayed a solubility in data set [6] of 1 µg/mL (≈ 2.51 µM). With `CN(CC[N+](C)(C)C)C(=O)CCc1cc(Cl)c(Oc2ccsc2C(=O)N2CCSc3ccccc32)cc1Cl`, in data set [7], the EC50 came to 74 nM. For `CN(Cc1cnccc1-c1ccccc1F)C(C#N)c1cc(C(F)(F)F)cc(C(F)(F)F)c1` (stereo unspecified), the EC50 in data set [8] was 35 nM; in [9], 150 nM. In data set [10], `CC(C)[C@@H](CO)NC(=O)CC[C@@H](C)[C@H]1CC[C@H]2[C@@H]3[C@@H](OC=O)C[C@@H]4C[C@H](OC=O)CC[C@]4(C)[C@H]3CC[C@]12C` returned an EC50 of 110 nM. In data set [9], `Fc1cccc(F)c1-c1ccncc1CN1C(c2ccco2)=NO[C@@H]1c1cc(C(F)(F)F)cc(C(F)(F)F)c1Cl` yielded an EC50 of 249 nM.

`COc1cc(-n2c(N(C)c3ccc(OC)c(OC)c3)cnc2SCc2c(F)cc(OCCCS(=O)(=O)O)cc2F)ccc1F`: the half-maximal effective concentration (EC50) in data set [9] amounted to 0.5 nM. For the compound `CC1(C)CC[C@]2(C(=O)O)CC[C@]3(C)C(=CC[C@@H]4[C@@]5(C)C[C@@H](O)[C@H](O)C(C)(C)[C@@H]5CC[C@]43C)[C@@H]2C1` [MASLINIC ACID], the EC50 in [1] was 3700 nM.

One may read the bioavailability as dose-corrected exposure relative to a reference, in per cent. Higher therefore signals much systemic uptake. As for `Cc1cc(/C(C[C@H](c2ccc(C3CCC(C(=O)O)CC3)cc2)c2ccccc2C)=N\O)ccn1` (stereo partly specified), the bioavailability in data set [11] was 100%. As for `COC(=O)NCc1cccc([C@H]2O[C@H](CC(=O)NCc3ccccc3F)C(=O)N(CC(C)(C)COC(C)=O)c3ccc(Cl)cc32)c1`, the Activity in [12] is 165%. In turn, `CO[C@H]1C[C@H]2[C@@H]([C@H](OC)C[C@@H]3C[C@H](O)CC[C@@]32C)[C@@H]2CC[C@H]([C@H](C)CCC(=O)N3CCCC3)[C@@]12C` yielded an EC50 in data set [13] of 150 nM. On to `COc1ccc(S(=O)(=O)N2CCCN(S(=O)(=O)c3ccc(OC)c(OC)c3)CC2)cc1OC` [SB-756050], for which, in data set [14], the EC50 was 1300 nM. `CCc1onc(-c2ccccc2)c1C(=O)N(C)c1ccc(Cl)cc1` gave a half-inhibitory concentration (IC50) in data set [15] of 251 nM. As for `O=C(c1cccnc1Oc1cc(Cl)ccc1Cl)N1CCN(C2COC2)c2ccccc21`, in [2], the CLint scaled worked out at 578 mL/min/kg. Besides, the EC50 in data set [3] amounted to 10 nM; in data set [9], 520 nM. The IC50 in data set [4] worked out at 300 nM; in data set [5] it was 8200 nM. Take `CC(c1cc(C(F)(F)F)cc(C(F)(F)F)c1)N1CCOc2nccc(-c3ccccc3)c2C1` (stereo unspecified): the Activity in data set [12] was 111%.
